In US9656990B2, “Cathepsin cysteine protease inhibitors” (Merck Sharp & Dohme Corp., priority 2014, dated 2017):

Legend:
human cathepsin F = target: T1, human cathepsin F (Homo sapiens, UniProt Q9UBX1); test: Cathepsin F Assay; type: biochemical; conditions: IP from dose response curve; Z-Phe-Arg-AMC substrate, pH 5.5; read-out: hCat F (IP (nM))
T1 sequence (Q9UBX1 271-484): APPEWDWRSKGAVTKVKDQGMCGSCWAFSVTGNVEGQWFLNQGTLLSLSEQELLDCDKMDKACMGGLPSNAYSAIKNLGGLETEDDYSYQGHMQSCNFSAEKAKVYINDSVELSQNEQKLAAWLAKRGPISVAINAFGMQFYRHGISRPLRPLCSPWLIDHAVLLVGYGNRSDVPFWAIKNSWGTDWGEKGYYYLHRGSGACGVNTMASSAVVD
In short: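 Human cathepsin F (10 nM) preincubated 15 min at room temperature with compounds in 50 mM MES pH 5.5, 2.5 mM EDTA, 2.5 mM DTT, 10% DMSO. Z-Phe-Arg-AMC (8 μM) added; AMC release read by fluorescence (Ex 360/Em 460 nm) over 20 min, inhibition fit to dose-response model.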

human cathepsin K = human cathepsin K (UniProt P43236, Y175D/V274L, species not given); test: Cathepsin K Assay; type: biochemical; conditions: IP from dose response curve; Z-Leu-Arg-AMC substrate, pH 5.5; read-out: hrbCat K (IP (nM))

SMILES	IC50 (human cathepsin F) [nM]	IC50 (human cathepsin K) [nM]
COc1ccc(-n2cc(-c3ccc(N4CCS(=O)(=O)CC4)cc3)c([C@@H]3CCCC[C@H]3C(=O)NC3(C#N)CC3)n2)nn1 [Example 162, (1R,2R)-N-(1-cyanocyclopropyl)-2-(4-(4-(1,1-dioxidothiomorpholino)phen-yl)-1-(6-methoxypyridazin-3-yl)-1H-pyrazol-3-yl)cyclohexanecarboxamide]	654	0.84
N#CC1(NC(=O)[C@@H]2CCCC[C@H]2c2nn(-c3ncc(F)cc3Cl)cc2-c2ccc(N3CCS(=O)(=O)CC3)cc2)CC1 [Example 147, (1R,2R)-2-(1-(3-chloro-5-fluoropyridin-2-yl)-4-(4-(1,1-dioxidothiomorpholino)phen-yl)-1H-pyrazol-3-yl)-N-(1-cyanocyclopropyl)cyclohex-anecarboxamide]	1190	3.26
N#CC1(NC(=O)[C@@H]2CC3CC3C[C@H]2c2nn(-c3ccc(F)cc3)cc2-c2ccc(N3CCS(=O)(=O)CC3)cc2)CC1 (single isomer, unassigned) [Example 3, (1S or 1R,3R,4R,6R or 6S)—N-(1-Cyanocyclopropyl)-4-(4-(4-(1,1-dioxidothiomorpholino)phenyl)-1-(4-fluorophenyl)-1H-pyrazol-3-yl)bicyclo[4.1.0]heptane-3-carboxamide]	333	0.84
C[C@@H](C#N)NC(=O)[C@@H]1C[C@@H](F)CC[C@H]1c1nn(-c2ccc(F)cn2)cc1-c1ccc(N2CCS(=N)(=O)CC2)cc1 [Example 60, (1R,2R,5S)-N-((S)-1-cyanoethyl)-5-fluoro-2-(1-(5-fluoropyridin-2-yl)-4-(4-(1-imino-1-oxidothiomorpholino)phenyl)-1H-pyrazol-3-yl)cyclohexanecarboxamide]	674	1.43
C[C@@H](C#N)NC(=O)[C@@H]1CCC(F)(F)C[C@H]1c1nn(-c2ncccc2F)cc1-c1ccc(N2CCS(=O)(=O)CC2)cc1 [Example 34, (1R,2R)-N-((S)-1-cyanoethyl)-2-(4-(4-(1,1-dioxidothiomorpholino)phen-yl)-1-(3-fluoropyridin-2-yl)-1H-pyrazol-3-yl)-4,4-difluorocyclohexanecarbox-amide]	2830	5.4
CN=S1(=O)CCN(c2ccc(-c3cn(-c4ncccc4F)nc3[C@@H]3CC(F)(F)CC[C@H]3C(=O)N[C@H](C#N)C(C)C)cc2)CC1 [Example 36, (1R,2R)-N-((S)-1-cyano-2-methylpropyl)-4,4-difluoro-2-(1-(3-fluoropyridin-2-yl)-4-(4-(1-(methylimino)-1-oxidothiomorpholino)phenyl)-1H-pyrazol-3-yl)cyclohexanecarboxamide]	8180	8.79
N#CC1(NC(=O)[C@@H]2CC3CC3C[C@H]2c2nn(-c3ccc(F)cn3)cc2-c2ccc(N3CCS(=O)(=O)CC3)cc2)CC1 (single isomer, unassigned) [Example 152, (1S,3R,4R,6R) or (1R,3R,4R,6S)-N-(1-cyanocyclopropyl)-4-(4-(4-(1,1-dioxidothiomorpholino)phen-yl)-1-(5-fluoropyridin-2-yl)-1H-pyrazol-3-yl)bicyclo[4.1.0]heptane-3-carboxamide]	338	1.06
N#CC1(NC(=O)[C@@H]2CCCC[C@H]2c2nn(-c3ccccc3Cl)cc2-c2ccc(N3CCS(=O)(=O)CC3)cc2)CC1 [Example 102, (1R,2R)-2-(1-(2-chlorophenyl)-4-(4-(1,1-dioxidothiomorpholino)phen-yl)-1H-pyrazol-3-yl)-N-(1-cyanocyclopropyl)cyclohex-anecarboxamide]	643	2.9
Cc1c(-c2ccc(N3CCS(=N)(=O)CC3)cc2)c([C@@H]2CCCC[C@H]2C(=O)N[C@H](C#N)C(C)C)nn1-c1ncccc1F [Example 52, (1R,2R)-N-((S)-1-cyano-2-methylpropyl)-2-(1-(3-fluoropyridin-2-yl)-4-(4-(1-imino-1-oxidothiomorpholino)phenyl)-5-methyl-1H-pyrazol-3-yl)cyclohexanecarboxamide]	9320	22.5
